How the values were obtained:
[1] = Inhibition of NS5A in HCV genotype 1a infected in human HuH7 replicon cells assessed as reduction in viral replication after 3 days by luciferase reporter gene assay
[2] = Inhibition of NS5A in HCV genotype 1b infected in human HuH7 replicon cells assessed as reduction in viral replication after 3 days by luciferase reporter gene assay
[3] = Inhibition of NS5A in HCV genotype 5a infected in human HuH7 replicon cells expressing HCV genotype 1b chimeric replicon assessed as reduction in viral replication after 3 days by luciferase reporter gene assay
[4] = Inhibition of NS5A in HCV genotype 2a JFH-1 infected in human Huh7.5.1 cells assessed as reduction in viral replication after 3 days by luciferase reporter gene assay
[5] = Inhibition of NS5A in HCV genotype 6a infected in human HuH7 replicon cells expressing HCV genotype 1b chimeric replicon assessed as reduction in viral replication after 3 days by luciferase reporter gene assay
[6] = Inhibition of NS5A in HCV genotype 3a infected in human HuH7 replicon cells expressing HCV genotype 1b chimeric replicon assessed as reduction in viral replication after 3 days by luciferase reporter gene assay

Compound	EC50 [1] [pM]	EC50 [2] [pM]	EC50 [3] [pM]	EC50 [4] [pM]	EC50 [5] [pM]	EC50 [6] [pM]
COC(=O)N[C@H](C(=O)N1CCC[C@H]1C(=O)Nc1ccc([C@H]2CC[C@@H](c3ccc(NC(=O)[C@@H]4CCCN4C(=O)[C@@H](NC(=O)OC)C(C)C)cc3)N2c2ccc([Si](C)(C)C)cc2)cc1)C(C)C	> 500	8	–	–	–	–
COC(=O)N[C@H](C(=O)N1CCC[C@H]1C(=O)Nc1ccc([C@@H]2CC[C@@H](c3ccc(NC(=O)[C@@H]4CCCN4C(=O)[C@@H](NC(=O)OC)C(C)C)cc3)N2c2ccc([Si](C)(C)C)cc2)cc1)C(C)C	14	4	1	2.5	1410	38
CC[Si](CC)(CC)c1ccc(N2[C@@H](c3ccc(NC(=O)[C@@H]4CCCN4C(=O)[C@@H](NC(=O)OC)C(C)C)cc3)CC[C@H]2c2ccc(NC(=O)[C@@H]3CCCN3C(=O)[C@@H](NC(=O)OC)C(C)C)cc2)cc1	> 500	7	–	–	–	–
COC(=O)N[C@H](C(=O)N1CCC[C@H]1C(=O)Nc1ccc([C@@H]2CC[C@@H](c3ccc(NC(=O)[C@@H]4CCCN4C(=O)[C@@H](NC(=O)OC)C(C)C)cc3)N2c2ccc([Si](C)(C)C(C)(C)C)cc2)cc1)C(C)C	11	3	1	1.1	925	12
COC(=O)N[C@H](C(=O)N1CCC[C@H]1C(=O)Nc1ccc([C@H]2CC[C@H](c3ccc(NC(=O)[C@@H]4CCCN4C(=O)[C@@H](NC(=O)OC)C(C)C)cc3)N2c2ccc([Si](C)(C)C)cc2)cc1)C(C)C	118	7	–	–	–	–
CC[Si](CC)(CC)c1ccc(N2[C@@H](c3ccc(NC(=O)[C@@H]4CCCN4C(=O)[C@@H](NC(=O)OC)C(C)C)cc3)CC[C@@H]2c2ccc(NC(=O)[C@@H]3CCCN3C(=O)[C@@H](NC(=O)OC)C(C)C)cc2)cc1	41	6	–	–	–	–
CC[Si](CC)(CC)c1ccc(N2[C@H](c3ccc(NC(=O)[C@@H]4CCCN4C(=O)[C@@H](NC(=O)OC)C(C)C)cc3)CC[C@H]2c2ccc(NC(=O)[C@@H]3CCCN3C(=O)[C@@H](NC(=O)OC)C(C)C)cc2)cc1	7	3	1	–	445	10
COC(=O)N[C@H](C(=O)N1CCC[C@H]1C(=O)Nc1ccc([C@@H]2CC[C@@H](c3ccc(NC(=O)[C@@H]4CCCN4C(=O)[C@@H](NC(=O)OC)C(C)C)cc3)N2c2ccc(C(C)(C)C)cc2)cc1)C(C)C [CHEBI:85183]	30	5	4	2.6	3390	86

Source: BindingDB's records for doi:10.1016/j.ejmech.2018.02.025 (Chia Tai Tianqing Pharmaceutical Group, 2018)
